Among the data in patent publication US7169789B2 (Kirin Beer Kabushiki Kaisha, priority 1999, dated 2007) are IC50, Change in morphosis and inhibition in vivo values, retold here.

For orientation: IC50 means the point on the concentration scale where inhibition reaches its midpoint.

The subject of data set [1] is activation of MAPK within vascular endothelial cells induced by VEGF stimulation. As to the kind of experiment: Inhibitory activity against activation of MAPK within vascular endothelial cells induced by VEGF stimulation. In kind it is cell-based. As to conditions: human funicular venous vascular endothelial cells, VEGF 50 ng/ml, phosphorylated MAPK by immunoblotting. As to the method:
Measurement of Inhibitory Activity Against Activation of MAPK Within Vascular Endothelial Cells Induced by VEGF Stimulation
Human funicular venous vascular endothelial cells (purchased from Chronetics) were cultured in an EGM-2 medium (purchased from Chronetics) within an incubator containing 5% carbon dioxide until 50 to 70% confluent, and the culture was inoculated into wells, containing the same medium, in a 96-well flat-bottom plate in an amount of 1.5×10^5 per well. After cultivation at 37° C. overnight, the medium was replaced by an EBM-2 medium containing 0.5% fetal calf serum (purchased from Chronetics), followed by cultivation for 24 hr. A solution of the test compound in dimethyl sulfoxide was added to each well, and the cultivation was continued at 37° C. for additional one hr. A human recombinant vascular endothelial growth factor (hereinafter abbreviated to “VEGF”) was added to a final concentration of 50 ng/ml, and the stimulation of cells was carried out at 37° C. for 8 min. The medium was removed, the cells were washed with phosphate buffered saline (pH 7.4), and 10 μl of a solubilization buffer (Tris buffered saline (pH 7.4) containing 1% Triton X100, 2 mM sodium orthovanadylate, and 1 mM disodium ethylenediaminetetraacetate) was then added thereto. The mixture was shaken at 4° C. for one hr to solubilize the cells. An equal amount of Tris buffered saline containing 1% sodium laurylsulfate was added to and thoroughly mixed with the solution. This solution (2 μl) was adsorbed on a PVDF filter by dot blotting, and this filter was subjected to immunoblotting with anti-tyrosine phosphorylated MAPK antibody (purchased from Daiichi Pure Chemicals).
The level of phosphorylated MAPK was quantitatively determined with a densitometer, and the percentage phosphorylated MAPK in the presence of the test compound was determined by presuming the level of phosphorylated MAPK with the addition of VEGF in the absence of the test compound to be 100% and the level of phosphorylated MAPK in the absence of the test compound and VEGF to be 0%. The test compound concentration (IC50) necessary for inhibiting 50% of the activation of MAPK was calculated based on the percentage of phosphorylated MAPK.
A general note: Immunoblotting shows a protein as a band on a membrane.

Data set [2] has as its system A375 human melanoma cells. The experiment in a line: Karyomorphosis test. In kind it is cell-based. As to conditions: test compound 10 μM and 1 μM, 48 hr, nuclei stained with propidium iodide. The protocol:
A375 human melanoma cells (2×10^4) (obtained from Japanese Foundation for Cancer Research) were incolulated on a culture slide (manufactured by Falcon) and were cultured at 37° C. After the elapse of 5 hr from the initiation of the cultivation, the test compound was added to 10 μM and 1 μM, and the cultivation was continued for additional 48 hr. After the fixation of cells, 50 μg/ml propidium iodide solution containing ribonuclease (200 μg/ml) was added to stain nuclei. The stained nuclei were observed under a fluorescent microscope to analyze the nuclei for abnormality of karyomorphosis.

The next data set addresses T1, human KDR (Homo sapiens, UniProt P35968).
T1 construct: expressed in transfected cells; host or cells: NIH 3T3 cells (Sawano A et al., Cell Growth & Differentiation 7, 213-221 (1996))
As to the kind of experiment: Inhibitory activity against KDR phosphorylation by ELISA. In kind it is cell-based. To be noted: NIH 3T3 cells transfected with human KDR, VEGF 100 ng/ml.

A further data set deals with Human glioma cells GL07. The experiment in a line: Antitumor effect on human glioma cells (GL07) transplanted into nude mice. In kind it is in vivo. To be noted: Mus musculus, Glioma cell, 216 h, GL07, oral, 20 mg/kg once a day for 9 days, read-out: TGIR, % (tumor growth inhibition rate). The method in brief:
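GL07 xenografts in nude mice, grouped (n=4) at ~100 mm^3 tumor volume. Test compound 20 mg/kg p.o. or i.p. once daily for 9 days; vehicle controls. TGIR = (1−Tx/Cx)×100 from tumor volumes normalized to day-of-start volume = 1.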

T1 sequence (P35968 20-1356): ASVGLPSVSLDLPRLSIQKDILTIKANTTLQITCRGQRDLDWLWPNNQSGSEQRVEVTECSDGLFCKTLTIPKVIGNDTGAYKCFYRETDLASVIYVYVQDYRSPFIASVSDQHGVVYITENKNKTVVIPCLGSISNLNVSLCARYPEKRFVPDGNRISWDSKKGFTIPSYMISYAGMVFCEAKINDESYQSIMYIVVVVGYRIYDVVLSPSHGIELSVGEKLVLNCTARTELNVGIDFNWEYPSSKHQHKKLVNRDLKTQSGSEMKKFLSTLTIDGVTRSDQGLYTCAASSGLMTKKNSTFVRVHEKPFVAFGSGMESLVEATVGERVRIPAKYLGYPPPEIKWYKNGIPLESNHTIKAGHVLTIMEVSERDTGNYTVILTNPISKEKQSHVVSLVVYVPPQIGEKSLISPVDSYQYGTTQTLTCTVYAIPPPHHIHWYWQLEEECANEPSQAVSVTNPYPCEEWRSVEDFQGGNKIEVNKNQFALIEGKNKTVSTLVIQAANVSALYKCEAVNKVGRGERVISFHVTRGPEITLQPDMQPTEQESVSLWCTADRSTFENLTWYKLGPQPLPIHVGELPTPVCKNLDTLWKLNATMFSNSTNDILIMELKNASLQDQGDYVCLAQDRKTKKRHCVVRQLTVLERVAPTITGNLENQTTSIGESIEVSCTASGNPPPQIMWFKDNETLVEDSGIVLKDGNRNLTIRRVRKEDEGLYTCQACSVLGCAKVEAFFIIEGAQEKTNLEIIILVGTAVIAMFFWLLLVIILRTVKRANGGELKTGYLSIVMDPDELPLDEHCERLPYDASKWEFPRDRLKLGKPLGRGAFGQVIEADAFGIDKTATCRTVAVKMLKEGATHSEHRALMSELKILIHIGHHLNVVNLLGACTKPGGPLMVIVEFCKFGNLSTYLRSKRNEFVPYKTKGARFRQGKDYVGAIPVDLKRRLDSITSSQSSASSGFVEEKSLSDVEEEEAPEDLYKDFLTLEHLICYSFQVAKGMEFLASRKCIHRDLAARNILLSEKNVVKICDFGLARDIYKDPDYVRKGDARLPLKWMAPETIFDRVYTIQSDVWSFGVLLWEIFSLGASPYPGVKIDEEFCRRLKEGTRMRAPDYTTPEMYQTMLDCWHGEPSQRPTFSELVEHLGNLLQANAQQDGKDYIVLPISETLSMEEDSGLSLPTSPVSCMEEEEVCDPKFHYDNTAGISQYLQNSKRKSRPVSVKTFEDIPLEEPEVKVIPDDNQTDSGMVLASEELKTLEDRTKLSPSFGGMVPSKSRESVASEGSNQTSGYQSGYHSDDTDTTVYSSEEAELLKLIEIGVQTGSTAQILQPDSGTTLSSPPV

The compound `COc1cc2nccc(Oc3cc(C)c(NC(=O)Nc4ccccc4C)cc3C)c2cc1OC` [Example 42, N-{4-[(6,7-Dimethoxy-4-guinolyl)oxy]-2,5-dimethylphenyl}-N′-(2-methylphenyl)urea] came in with an IC50 in data set [1] of 5.9 nM. Moreover, in data set [2], the Change in morphosis result is “(−) (the change in karyomorphosis of cells did not take place at 10 μM)”.

Regarding `COc1ccccc1NC(=O)Nc1ccc(Oc2ccnc3cc(OCc4ccccc4)c(OC)cc23)c(C)c1C` [Example 60, N-(4-{[7-(Benzyloxy)-6-methoxy-4-quinolyl]oxy}-2,3-dimethylphenyl)-N′-(2-methoxyphenyl)-urea], the Change in morphosis result in data set [2] was “(−) (the change in karyomorphosis of cells did not take place at 10 μM)”.

Consider `COc1cc2nccc(Oc3ccc(NC(=O)Nc4ccc(Br)c(C)n4)c(Cl)c3)c2cc1OC` [Example 15, N-(5-Bromo-6-methyl-2-pyridyl)-N′-{2-chloro-4-[(6,7-dimethoxy-4-quinolyl)oxy]phenyl}urea], for which the Change in morphosis result in data set [2] is listed as “(−) (the change in karyomorphosis of cells did not take place at 10 μM)”.

On to `CCCCNC(=O)Nc1ccc(Oc2ncnc3cc(OC)c(OC)cc23)cc1C` [Example 103, N-Butyl-N′-{4-[(6,7-dimethoxy-4-quinazolinyl)oxy]-2-methylphenyl}urea], for which the IC50 in data set [1] (Endothelial cell) stood at 53 nM; on human KDR, 78 nM. In the data set on Human glioma cells GL07, the inhibition in vivo at 20 mg/kg was found to be 23%.

For `COc1cc2ncnc(Oc3ccc(NC(=O)Nc4ccc(F)cc4)c(C)c3)c2cc1OC` [Example 105, N-{4-[(6,7-Dimethoxy-4-quinazolinyl)oxy]-2-methylphenyl}-N′-(4-fluorophenyl)urea], the concentration for half-maximal inhibition (IC50) amounted to 2.3 nM in data set [1] (Endothelial cell) and 2 nM against human KDR. In addition, in the data set with Human glioma cells GL07, the inhibition in vivo at 20 mg/kg was found to be 20%.

As for `C=CCNC(=O)Nc1ccc(Oc2ncnc3cc(OC)c(OC)cc23)cc1Cl` [Example 80, N-Allyl-N′-{2-chloro-4-[(6,7-dimethoxy-4-quinazolinyl)oxy]phenyl}urea], the concentration for half-maximal inhibition (IC50) in data set [1] (Endothelial cell) was 13 nM; on human KDR it was 2.7 nM. Further, the inhibition in vivo at 20 mg/kg with Human glioma cells GL07 came to 52%.

`CCCNC(=O)Nc1ccc(Oc2ncnc3cc(OC)c(OC)cc23)cc1` [Example 64, N-{4-[(6,7-Dimethoxy-4-quinazolinyl)oxy]-phenyl}-N′-propylurea]: the IC50 in data set [1] (Endothelial cell) worked out at 42 nM; on human KDR, 150 nM. Moreover, in the data set on Human glioma cells GL07, the inhibition in vivo at 20 mg/kg was 37%.

Take `C#CCNC(=O)Nc1ccc(Oc2ncnc3cc(OC)c(OC)cc23)cc1` [Example 69, N-{4-[(6,7-Dimethoxy-4-quinazolinyl)-oxy]phenyl}-N′-(2-propynyl)urea]: the IC50 turned out to be 67 nM in data set [1] (Endothelial cell) and 64 nM against human KDR. Moreover, the inhibition in vivo at 20 mg/kg in the data set on Human glioma cells GL07 is 26%.

For `CCCNC(=O)Nc1ccc(Oc2ncnc3cc(OC)c(OC)cc23)c(C)c1` [Example 97, N-{4-[(6,7-Dimethoxy-4-quinazolinyl)oxy]-3′-methylphenyl}-N′-propylurea], the figures for the IC50 (in data set [1] (Endothelial cell); against human KDR) were 518 nM and 490 nM, respectively. Besides, the inhibition in vivo at 20 mg/kg in the data set with Human glioma cells GL07 was 48%.

Consider `COc1cc2ncnc(Oc3ccc(NC(=O)Nc4ccc(F)cc4F)c(F)c3)c2cc1OC` [Example 94, N-(2,4-Difluorophenyl)-N′-{4-[(6,7-dimethoxy-4-quinazolinyl)oxy]-2-fluorophenyl}urea], for which the figures for the 50% inhibitory concentration (IC50) (in data set [1] (Endothelial cell); against human KDR) were 1.8 nM and 2.3 nM, respectively. Moreover, the inhibition in vivo at 20 mg/kg in the data set on Human glioma cells GL07 was determined as 29%.

On to `CCCNC(=O)Nc1ccc(Oc2ncnc3cc(OC)c(OC)cc23)cc1[N+](=O)[O-]` [Example 107, N-{4-[(6,7-Dimethoxy-4-quinazolinyl)oxy]-2-nitrophenyl}-N′-propylurea], for which the values for the concentration for half-maximal inhibition (IC50) (in data set [1] (Endothelial cell); on human KDR) were 10.2 nM and 11 nM, respectively. Further, the inhibition in vivo at 20 mg/kg in the data set with Human glioma cells GL07 turned out to be 49%.

As to `COc1cc2ncnc(Oc3ccc(NC(=O)Nc4ccc(F)cc4F)c(Cl)c3)c2cc1OC` [Example 61, N-{2-Chloro-4-[(6,7-dimethoxy-4-quinazolinyl)oxy]phenyl}-N′-(2,4-difluorophenyl)urea], the Change in morphosis entry in data set [2] is “(−) (the change in karyomorphosis of cells did not take place at 10 μM)”.

As to `COc1cc2nccc(Oc3cc(C)c(NC(=O)Nc4ccc(Br)c(C)n4)cc3C)c2cc1OC` [Example 44, N-(5-Bromo-6-methyl-2-pyridyl)-N′-{4-[(6,7-dimethoxy-4-quinolyl)oxy]-2,5-dimethylphenyl}urea], the Change in morphosis entry in data set [2] was “(−) (the change in karyomorphosis of cells did not take place at 10 μM)”.

In the case of `CCCNC(=O)Nc1ccc(Oc2ncnc3cc(OC)c(OC)cc23)cc1C` [Example 102, N-{4-[(6,7-Dimethoxy-4-quinazolinyl)oxy]-2-methylphenyl}-N′-propylurea], the values for the IC50 (in data set [1] (Endothelial cell); at human KDR) were 150 nM and 105 nM, respectively. Besides, the inhibition in vivo at 20 mg/kg in the data set on Human glioma cells GL07 was 24%.

As to `C=CCNC(=O)Nc1ccc(Oc2ncnc3cc(OC)c(OC)cc23)cc1` [Example 68, N-Allyl-N′-{4-[(6,7-Dimethoxy-4-quinazolinyl)oxy]phenyl}urea], the values for the 50% inhibitory concentration (IC50) (in data set [1] (Endothelial cell); against human KDR) were 45 nM and 24 nM, respectively. Also, the inhibition in vivo at 20 mg/kg in the data set with Human glioma cells GL07 came out at 57%.

Turning to `COc1cc2ncnc(Oc3ccc(NC(=O)N(C)c4ccccn4)c(Cl)c3)c2cc1OC` [Example 83], the figures for the IC50 (in data set [1] (Endothelial cell); against human KDR) were greater than 1000 nM and 840 nM, respectively. Moreover, the inhibition in vivo at 20 mg/kg in the data set with Human glioma cells GL07 turned out to be 31%.

As to `COc1cc2nccc(Oc3cc(C)c(NC(=O)Nc4ccc(Cl)cc4C)cc3C)c2cc1OC` [Example 39, N-(4-chloro-2-methylphenyl)-N′-{4-[(6,7-dimethoxy-4-quinolyl)oxy]-2,5-dimethylphenyl}urea], the Change in morphosis result in data set [2] is on record as “(−) (the change in karyomorphosis of cells did not take place at 10 μM)”.

As to `COc1cc2ncnc(Oc3ccc(NC(=O)Nc4ccc(F)cc4)c(Cl)c3)c2cc1OC` [Example 85, N-{2-Chloro-4-[(6,7-dimethoxy-4-quinazolinyl)oxy]phenyl}-N′-(4-fluorophenyl)urea], the concentration for half-maximal inhibition (IC50) amounted to 0.7 nM in data set [1] (Endothelial cell) and 0.5 nM against human KDR. Besides, the inhibition in vivo at 20 mg/kg with Human glioma cells GL07 was determined as 26%.

`CCCNC(=O)Nc1cc(C)c(Oc2ccnc3cc(OC)c(OC)cc23)cc1C` [Example 38, N-{4-[(6,7-Dimethoxy-4-quinolyl)oxy]-2,5-dimethylphenyl}-N′-propylurea]: in data set [2], the Change in morphosis result is on record as “(−) (the change in karyomorphosis of cells did not take place at 10 μM)”.

For the compound `CCC(C)NC(=O)Nc1ccc(Oc2ncnc3cc(OC)c(OC)cc23)cc1Cl` (centres unmarked) [Example 79, N-(sec-Butyl)-N′-{2-chloro-4-[(6,7-dimethoxy-4-quinazolinyl)oxy]phenyl}urea], the values for the concentration for half-maximal inhibition (IC50) (in data set [1] (Endothelial cell); on human KDR) were 30 nM and 18 nM, respectively. Moreover, in the data set on Human glioma cells GL07, the inhibition in vivo at 20 mg/kg is 28%.

Turning to `COc1cc2ncnc(Oc3ccc(NC(=O)Nc4ccc(F)cc4F)cc3C)c2cc1OC` [Example 99, N-(2,4-Difluorophenyl)-N′-{4-[(6,7-dimethoxy-4-quinazolinyl)oxy]-3-methylpenyl}urea], the IC50 in data set [1] (Endothelial cell) came out at 8.8 nM; on human KDR, 25 nM. Besides, the inhibition in vivo at 20 mg/kg with Human glioma cells GL07 was found to be 33%.

As to `COc1cc2ncnc(Oc3ccc(NC(=O)Nc4ccc(F)cc4)cc3C)c2cc1OC` [Example 100, N-{4-[(6,7-Dimethoxy-4-quinazolinyl)oxy)-3-methylphenyl}-N′-(4-fluorophenyl)urea], the IC50 in data set [1] (Endothelial cell) was 5.2 nM; against human KDR, 13 nM. Also, the inhibition in vivo at 20 mg/kg in the data set with Human glioma cells GL07 was determined as 36%.

Turning to `CCCCCNC(=O)Nc1ccc(Oc2ncnc3cc(OC)c(OC)cc23)cc1Cl` [Example 78, N-{2-Chloro-4-[(6,7-dimethoxy-4-quinazolinyl)oxy]phenyl}-N′-pentylurea], the 50% inhibitory concentration (IC50) in data set [1] (Endothelial cell) was 4.1 nM; at human KDR, 3.4 nM. Also, the inhibition in vivo at 20 mg/kg with Human glioma cells GL07 was determined as 21%.
